Holding throughout (assay): DTP human tumour cell line panel, 48 h
Assay [1] concerns COLO 205 colon.
Assay [2] concerns OVCAR-5 ovarian.
The subject of assay [3] is SF-268 CNS.
For assay [4], the system named is HL-60(TB) leukemia.
Assay [5] relates to NCI-H23 lung.
Assay [6] relates to HCC-2998 colon.
The subject of assay [7] is HCT-15 colon.
Assay [8] has as its system MDA-MB-231 breast.
The subject of assay [9] is HOP-92 NSCLC.
Assay [10] has as its system DU-145 prostate.

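Assay format: 96-well plates, 48-hour exposure. At the GI50, growth is halved. TGI: concentration producing complete growth inhibition.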

One may read the GI50 as the concentration at which growth is held to half of that of the control. By TGI is commonly meant the concentration at which net growth stops. Higher therefore signals lower sensitivity of the cells. Take `O=C1NC(=NCc2cccs2)O/C1=C\c1ccc2ncccc2c1`: the GI50 in [1] is 5.2 µM; in assay [2], 6.58 µM; in assay [3], 5.34 µM; in assay [4] it was 4.64 µM; in assay [5] it was 7.9 µM; in assay [6], 7.76 µM. Besides, the GI50 in assay [7] is 6.38 µM; in [8] it was 8.23 µM; in [9], 1.51 µM; in assay [10] it was 5.82 µM. Further, the TGI was 12.8 µM in [1]; 23.9 µM in assay [2]; 18.1 µM in assay [3]; 15.3 µM in assay [4]; above 25 µM in assay [5]; above 25 µM in assay [6]. Also, the TGI in assay [7] is above 25 µM; in assay [8] it was above 25 µM; in assay [9], 9.66 µM; in assay [10], above 25 µM.

As for `Nc1cc(C(F)(F)F)c(-c2nc(N3CCOCC3)nc(N3CCOCC3)n2)cn1`, the GI50 in assay [1] is 0.265 µM; in assay [2], 0.192 µM; in assay [3], 0.476 µM; in assay [4], 0.381 µM; in assay [5], 0.446 µM; in [6], 0.633 µM. Moreover, the GI50 was 0.318 µM in assay [7], 0.703 µM in [8], 0.139 µM in assay [9] and 0.475 µM in [10]. Moreover, the TGI in assay [1] was 10 µM; in assay [2], above 100 µM; in assay [3] it was above 72.5 µM; in [4], above 84.1 µM; in [5], above 100 µM; in [6], above 88 µM. For the same compound, the TGI in assay [7] was above 56.1 µM; in assay [8], 40.6 µM; in assay [9], 0.765 µM; in assay [10], above 100 µM.

As for `CCOC(=O)C#Cc1c(C(=O)OCC)nnn1[C@@H]1O[C@H](COC)[C@@H](OC)[C@H]1OC`, the GI50 in assay [1] was 1.94 µM; in [2], 16.2 µM; in assay [3], 16.3 µM; in [4], 1.98 µM; in assay [5], 12.3 µM; in assay [6] it was 18 µM. Moreover, the GI50 in assay [7] is 2.56 µM; in assay [8], 10.7 µM; in assay [9] it was 2.8 µM; in [10], 10.6 µM. Also, the TGI in assay [1] is 3.83 µM; in assay [2], 32.7 µM; in assay [3] it was 35.6 µM; in assay [4], 5.41 µM; in assay [5] it was 26.3 µM; in assay [6], 32.8 µM. The TGI in assay [7] came to 6.66 µM; in [8], 25.1 µM; in [9] it was 7.61 µM; in assay [10], 22.4 µM.

Regarding `CC(=O)O[C@H]([C@H](OC(C)=O)[C@H](C)OC(C)=O)[C@@H](/C=C/[C@H]1CC=CC(=O)O1)OC(C)=O`, the GI50 is 37.1 µM in assay [1]; above 100 µM in [2]; 41.6 µM in [3]; 59.4 µM in assay [4]; 66.6 µM in assay [5]; 24.1 µM in [6]. The GI50 in assay [7] was 44.9 µM; in [8] it was above 100 µM; in assay [9], 23.5 µM; in assay [10], 38.2 µM. Moreover, the TGI in [1] was above 100 µM; in assay [2] it was above 100 µM; in [3], above 100 µM; in assay [4], above 100 µM; in assay [5] it was above 100 µM; in assay [6], 68.9 µM. Besides, the TGI in [7] is above 100 µM; in assay [8] it was above 100 µM; in assay [9], 62.4 µM; in assay [10], above 100 µM.

For the compound `O=C1C[C@@H]2OCC=C3C[N+]4([O-])CC[C@]56c7ccccc7N1[C@H]5[C@H]2[C@H]3C[C@@H]64` (stereo not given in full), the GI50 in assay [1], in assay [2], in assay [3], in [4], in assay [5] and in assay [6] was above 100 µM throughout. Besides, the GI50 in [7], in assay [8], in assay [9] and in assay [10] was above 100 µM in each case. For the same compound, the TGI in assay [1], in [2], in assay [3], in [4], in assay [5] and in assay [6] was above 100 µM throughout. Further, the TGI in [7], in assay [8], in assay [9] and in [10] was above 100 µM throughout.

Turning to `COc1ccc([C@@H]2[C@@H](Oc3ccccc3)C(=O)N2c2cc(OC)c(OC)c(OC)c2)cc1F`, the GI50 is 0.235 µM in assay [1]; 0.421 µM in assay [2]; 0.222 µM in assay [3]; 0.24 µM in assay [4]; 0.7 µM in assay [5]; 0.524 µM in [6]. Besides, the GI50 in assay [7] was 0.155 µM; in [8], 0.298 µM; in assay [9], 0.722 µM; in assay [10] it was 0.378 µM. Besides, the TGI was 0.972 µM in assay [1]; above 100 µM in assay [2]; above 100 µM in [3]; 0.609 µM in [4]; above 100 µM in [5]; above 100 µM in [6]. Also, the TGI in assay [7], in assay [8], in [9] and in [10] was above 100 µM throughout.

For the compound `CC1(C)CC2=NO[Se]3=C2C(=NO3)C1`, the TGI in [1] stood at 3.73 µM; in [2] it was 20.5 µM; in [3], 56.3 µM; in assay [4] it was 5.08 µM; in assay [5], 5.65 µM; in assay [6] it was 16.8 µM. The TGI came to 11.5 µM in [7], 16.4 µM in assay [8], 8.21 µM in assay [9] and 10.4 µM in assay [10].

Consider `NS(=O)(=O)c1cc2c(cc1Cl)NCNS2(=O)=O`, for which the TGI in assay [1], in assay [2], in [3], in assay [4], in [5] and in [6] was above 100 µM in each case. Further, the TGI in assay [7], in [8], in [9] and in assay [10] was above 100 µM each time.

Values taken from PubChem BioAssay (NCI).
